From PubChem BioAssay (NCI)
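All cell lines were grown in 96-well plates and treated with compound for 48 hours. GI50: concentration for 50% inhibition of growth. TGI: total growth inhibition.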

Assays:
Experiment in all cases: NCI anticancer screen, dose series, 48 h
LOX IMVI melanoma = test system: LOX IMVI melanoma
NCI-H23 lung = test system: NCI-H23 lung
UACC-257 melanoma = test system: UACC-257 melanoma
SF-268 CNS = test system: SF-268 CNS
IGROV1 ovarian = test system: IGROV1 ovarian
A549 NSCLC = test system: A549 NSCLC
OVCAR-5 ovarian = test system: OVCAR-5 ovarian
K-562 leukemia = test system: K-562 leukemia
MDA-MB-435 = test system: MDA-MB-435
T-47D breast = test system: T-47D breast

Compound	TGI (LOX IMVI melanoma) [µM]	TGI (NCI-H23 lung) [µM]	TGI (UACC-257 melanoma) [µM]	TGI (SF-268 CNS) [µM]	TGI (IGROV1 ovarian) [µM]	TGI (A549 NSCLC) [µM]	TGI (OVCAR-5 ovarian) [µM]	TGI (K-562 leukemia) [µM]	TGI (MDA-MB-435) [µM]	TGI (T-47D breast) [µM]	GI50 (LOX IMVI melanoma) [µM]	GI50 (NCI-H23 lung) [µM]	GI50 (UACC-257 melanoma) [µM]	GI50 (OVCAR-5 ovarian) [µM]	GI50 (MDA-MB-435) [µM]	GI50 (K-562 leukemia) [µM]	GI50 (IGROV1 ovarian) [µM]	GI50 (A549 NSCLC) [µM]	GI50 (T-47D breast) [µM]	GI50 (SF-268 CNS) [µM]
c1ccc2c(c1)N=C(c1cccc3ccccc13)CC(c1ccc3c(c1)OCO3)S2 (stereo unspecified)	> 100	> 100	> 100	> 100	> 100	> 100	> 100	> 100	–	–	–	–	–	–	–	–	–	–	–	–
COc1ccc(C2C=C(c3ccc4c(c3)OCO4)Oc3c2c(=O)oc2ccccc32)cc1OC (stereo unspecified)	> 100	> 46.2	–	> 100	> 100	> 100	> 100	–	0.529	–	–	–	–	–	–	–	–	–	–	–
C=C(C(=C)P(=S)(c1ccccc1)c1ccccc1)P(=S)(c1ccccc1)c1ccccc1	–	> 100	> 100	> 100	> 100	> 100	> 100	> 100	–	–	–	–	–	–	–	–	–	–	–	–
NCOC(=O)Cc1ccc(Br)cc1	> 100	> 100	> 100	> 100	> 100	> 100	> 100	> 100	–	> 100	–	–	–	–	–	–	–	–	–	–
COC(=O)C1=C(C(=O)OC)C2(C)Nc3ccccc3C2=C(c2ccccc2)C1 (stereo unspecified)	55.7	45.7	39.7	66.5	52.9	46.7	62.7	47.8	–	–	–	–	–	–	–	–	–	–	–	–
CC#CC1C2CCCC1(CSc1ccccc1)NC(=O)O2 (stereo unspecified)	–	> 100	> 100	> 100	> 100	> 100	> 100	> 100	–	–	–	–	–	–	–	–	–	–	–	–
CC(C)NC(=O)CCN(C(=O)O)S(=O)(=O)c1ccc(NC(=O)c2ccccc2)cc1	> 61.7	> 100	> 79.3	> 100	> 100	> 71.2	> 100	> 64.5	–	–	–	–	–	–	–	–	–	–	–	–
COc1cc([N+](=O)[O-])c(OC)cc1-c1nc2sc(Cl)cn2c1/C=N/NC1=NCCN1	3.25	2.42	4.43	–	–	–	2.3	> 100	> 100	–	1.74	0.937	2.23	0.878	3.65	3.56	–	–	–	–
CC(=O)[CH-]C(=O)c1ccccc1.CC(=O)[CH-]C(=O)c1ccccc1.C[C@]12CCC(=O)C=C1CC[C@@H]1C2CC[C@@]2(C)C1CC[C@@H]2[O-].C[C@]12CCC(=O)C=C1CC[C@@H]1C2CC[C@@]2(C)C1CC[C@@H]2[O-].Cl.[Ti+4] (stereo partly specified)	38.8	32.1	69.7	–	46.4	43.9	55.8	> 100	–	–	16.9	16.2	19.3	11.8	–	23.2	21.8	18.4	–	–
CCNC(=O)O/N=C1\CCC2[C@@H]3CC=C4C[C@@H](OC5CCCCO5)CC[C@]4(C)C3CC[C@]12C (stereo partly specified)	–	11.1	4.41	–	> 100	64.2	13	–	–	–	–	–	–	–	–	–	–	–	–	–
COc1cc(-c2cc(-c3cc(OC)c(OC)c(OC)c3)nc3nc(N)[nH]c(=O)c23)ccc1Oc1ccnc2cc(Cl)ccc12	19.8	24.9	60.8	> 100	> 100	> 100	> 100	> 100	–	58	1.27	3.43	7.08	4.76	–	0.379	4.49	2.84	5.22	3.43
Clc1cc(Cl)cc(N2N=C(c3cccc(Nc4ccncc4)c3)CC2c2ccc3c(c2)OCO3)c1 (stereo unspecified)	–	3.45	–	3.34	3.18	–	3.51	4.86	3.09	–	–	1.79	–	1.83	1.62	2.06	1.62	–	–	1.7
OCCN1CCN2C=C(C3CCCC4N(CCO)CCN34)CCC21 (stereo unspecified)	> 100	> 100	> 100	> 100	> 100	> 100	> 100	> 61.5	–	–	–	–	–	–	–	–	–	–	–	–
OCc1ccc(N2CCc3ccccc3C2)cc1Cl	> 100	44	–	> 100	< 0.0281	7.59	0.069	19	> 75.8	–	31.6	13.9	–	< 0.0123	23.2	< 0.0224	< 0.0155	0.0604	–	32.5
Cc1ccccc1-n1c2nc(=O)n(C)c(=O)c-2nc2ccccc21	39.7	24.6	21.4	32.1	37.9	35.4	34.9	43.6	–	–	–	–	–	–	–	–	–	–	–	–
Cc1ccc(NC(=O)/C(Cl)=C(/Cl)C(=O)O)cc1	30.9	31.8	44.2	42	61.1	> 100	37.6	23.5	–	–	–	–	–	–	–	–	–	–	–	–
CC(=O)c1cc(C(=O)c2ccc3c(c2)Sc2ccccc2N3)c2cc(C)ccn12	> 100	> 100	–	> 100	> 100	> 100	–	> 100	–	–	0.0906	0.237	–	–	–	0.041	0.122	0.0648	–	0.0823
CN1CCN(C)C12C=CC=CC21CC1	> 100	> 100	> 100	> 100	> 100	> 100	> 100	> 100	–	–	–	–	–	–	–	–	–	–	–	–
Clc1ccc(-c2c(C3=NCCCN3)nnn2-c2ccccc2)cc1	55.7	> 100	> 100	> 100	> 100	> 100	> 100	> 100	–	–	–	–	–	–	–	–	–	–	–	–
NN1C(=O)C(CCO)S/C1=N/N=C1/SC(CCO)C(=O)N1N (stereo unspecified)	> 100	> 100	> 100	> 100	> 100	> 100	> 100	> 100	–	–	–	–	–	–	–	–	–	–	–	–
NNC(=O)N/N=C1\C(=O)N(c2ccc(Cl)c(Cl)c2)C(=O)C(=O)C1c1nc2ccccc2s1 (stereo unspecified)	–	> 100	> 100	> 100	> 100	> 100	–	–	–	–	–	–	–	–	–	–	–	–	–	–
